From PubChem BioAssay AID248 (DTP/NCI, 2004)
“And” between values parts separate entries of the source, which are not always exact repeats. Equal values may be shown once. Toxic doses and inconclusive results are not listed. Rule as the data show it: active = T/C of 150% or more; inactive = T/C below 125%.

Tested on: L1210 leukemia ip in BDF1 mice, survival T/C
Experiment: NCI In Vivo Anticancer Drug Screen. Data for tumor model L1210 Leukemia (intraperitoneal) in B6D2F1 (BDF1) mice
Details: endpoint: mean survival time, higher = longer survival
Outline: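 Mice bearing the transplanted tumor received compound or vehicle. Survival of the treated group was divided by that of the vehicle-treated control group to give the ratio.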

[1] = dose: 100.0 mg/kg/injection, schedule: Q04DX002 (ip), vehicle: Klucel (hydroxypropylcellulose) (HPC)
[2] = dose: 200.0 mg/kg/injection, schedule: Q04DX002 (ip), vehicle: Klucel (hydroxypropylcellulose) (HPC)
[3] = dose: 25.0 mg/kg/injection, schedule: Q01DX009 (ip), vehicle: saline
[4] = dose: 25.0 mg/kg/injection, schedule: Q04DX003 (ip), vehicle: saline
[5] = dose: 50.0 mg/kg/injection, schedule: Q01DX009 (ip), vehicle: saline
[6] = dose: 50.0 mg/kg/injection, schedule: Q04DX003 (ip), vehicle: saline
[7] = dose: 100.0 mg/kg/injection, schedule: Q01DX009 (ip), vehicle: saline
[8] = dose: 100.0 mg/kg/injection, schedule: Q04DX003 (ip), vehicle: saline
[9] = dose: 100.0 mg/kg/injection, schedule: Q04DX002 (ip), vehicle: saline
[10] = dose: 200.0 mg/kg/injection, schedule: Q04DX002 (ip), vehicle: saline
[11] = dose: 100.0 mg/kg/injection, schedule: Q01DX009 (ip), vehicle: Klucel (hydroxypropylcellulose) (HPC)
[12] = dose: 100.0 mg/kg/injection, schedule: Q04DX003 (ip), vehicle: Klucel (hydroxypropylcellulose) (HPC)
[13] = dose: 200.0 mg/kg/injection, schedule: Q04DX003 (ip), vehicle: Klucel (hydroxypropylcellulose) (HPC)
[14] = dose: 100.0 mg/kg/injection, schedule: Q01DX009 (ip), vehicle: saline with Tween-80
[15] = dose: 200.0 mg/kg/injection, schedule: Q01DX009 (ip), vehicle: saline with Tween-80
[16] = dose: 100.0 mg/kg/injection, schedule: Q01DX001 (ip), vehicle: carboxymethylcellulose (CMC)
[17] = dose: 200.0 mg/kg/injection, schedule: Q01DX001 (ip), vehicle: carboxymethylcellulose (CMC)
[18] = dose: 400.0 mg/kg/injection, schedule: Q04DX003 (ip), vehicle: Klucel (hydroxypropylcellulose) (HPC)

Measured: T/C

c1ccc(N=C(Nc2ccccc2)c2ccccc2)cc1
inactive: [1] 103 % of control | dose: 100.0 mg/kg/injection, schedule: Q04DX003 (ip), vehicle: saline with Tween-80 94 % of control | [2] 111 % of control | dose: 200.0 mg/kg/injection, schedule: Q04DX003 (ip), vehicle: saline with Tween-80 91 % of control | dose: 400.0 mg/kg/injection, schedule: Q04DX003 (ip), vehicle: saline with Tween-80 92 % of control

S=C(NCc1ccccc1)Nc1ncn[nH]1
inactive: [3] 100 % of control | [4] 92 % of control | [5] 94 % of control | [6] 92 % of control | [7] 90 % of control | [8] 92 % of control

CCCCCCCCCCCCCCCCCC(=O)NCCCNC(=O)CCCCCCCCCCCCCCCCC
inactive: dose: 75.0 mg/kg/injection, schedule: Q01DX001 (ip), vehicle: saline 98 % of control | dose: 150.0 mg/kg/injection, schedule: Q01DX001 (ip), vehicle: saline 95 % of control | dose: 300.0 mg/kg/injection, schedule: Q01DX001 (ip), vehicle: saline 106 % of control

Cc1ccc(Cc2c(C=O)nc(N)[nH]c2=O)c2ccccc12
inactive: [1] 90 % of control | [2] 97 % of control

CCC(C)N=C(N)C(N)=NC(C)CC (stereo not given)
inactive: [9] 103 % of control | [10] 103 % of control

O=C(Nc1ccccc1)OCCCC1CCCC1
inactive: dose: 100.0 mg/kg/injection, schedule: Q01DX009 (sc), vehicle: olive oil, sesame oil, peanut oil 108 % of control | dose: 200.0 mg/kg/injection, schedule: Q01DX009 (sc), vehicle: olive oil, sesame oil, peanut oil 105 % of control | dose: 400.0 mg/kg/injection, schedule: Q01DX009 (sc), vehicle: olive oil, sesame oil, peanut oil 100 % of control

Clc1ccc(NC2=NCCCS2)c2ccccc12
inactive: dose: 25.0 mg/kg/injection, schedule: Q01DX009 (ip), vehicle: Klucel (hydroxypropylcellulose) (HPC) 98 % of control | dose: 50.0 mg/kg/injection, schedule: Q01DX009 (ip), vehicle: Klucel (hydroxypropylcellulose) (HPC) 102 % of control | [11] 94 % of control and 92 % of control | [12] 97 % of control | [13] 90 % of control

CC1CC(=O)C(CCC#N)=C(Cl)C1 (stereo not given)
inactive: dose: 50.0 mg/kg/injection, schedule: Q01DX009 (ip), vehicle: saline with Tween-80 100 % of control | [14] 96 % of control | [15] 96 % of control

NC1CON(C(c2ccccc2)(c2ccccc2)c2ccccc2)C1=O (stereo not given)
inactive: [16] 94 % of control | [17] 89 % of control

O=C1C2OC2(c2ccccc2)C(=O)C2OC12c1ccccc1 (stereo not given)
inactive: dose: 75.0 mg/kg/injection, schedule: Q01DX001 (ip), vehicle: Klucel (hydroxypropylcellulose) (HPC) 96 % of control | dose: 150.0 mg/kg/injection, schedule: Q01DX001 (ip), vehicle: Klucel (hydroxypropylcellulose) (HPC) 87 % of control | dose: 300.0 mg/kg/injection, schedule: Q01DX001 (ip), vehicle: Klucel (hydroxypropylcellulose) (HPC) 91 % of control

O=c1ccc2c(-c3cc(S(=O)(=O)O)ccc3O)c3ccc(O)cc3oc-2c1
inactive: [12] 91 % of control | [13] 89 % of control | [18] 91 % of control

O=c1cc(Oc2ccc([N+](=O)[O-])cc2)[nH]c(=O)[nH]1
inactive: dose: 100.0 mg/kg/injection, schedule: Q01DX001 (ip), vehicle: Klucel (hydroxypropylcellulose) (HPC) 96 % of control | dose: 200.0 mg/kg/injection, schedule: Q01DX001 (ip), vehicle: Klucel (hydroxypropylcellulose) (HPC) 107 % of control

CCc1cc2c(cc1C(=O)/C=C\c1ccco1)C(C)(C)CCC2(C)C
inactive: [14] 103 % of control | dose: 100.0 mg/kg/injection, schedule: Q04DX002 (ip), vehicle: saline with Tween-80 96 % of control | [15] 95 % of control | dose: 200.0 mg/kg/injection, schedule: Q04DX002 (ip), vehicle: saline with Tween-80 93 % of control | dose: 400.0 mg/kg/injection, schedule: Q01DX009 (ip), vehicle: saline with Tween-80 106 % of control | dose: 400.0 mg/kg/injection, schedule: Q04DX002 (ip), vehicle: saline with Tween-80 93 % of control

S=c1nc[nH]c2c1ncn2CCc1ccccc1
inactive: dose: 50.0 mg/kg/injection, schedule: Q01DX001 (ip), vehicle: carboxymethylcellulose (CMC) 115 % of control | [16] 101 % of control | [17] 112 % of control | dose: 400.0 mg/kg/injection, schedule: Q01DX001 (ip), vehicle: carboxymethylcellulose (CMC) 95 % of control

N#CCCSC(=N)N
inactive: [3] 107 % of control | [4] 96 % of control | [5] 118 % of control | [6] 102 % of control | dose: 100.0 mg/kg/injection, schedule: Q01DX001 (ip), vehicle: saline 95 % of control | [7] 103 % of control | [8] 107 % of control

CSc1ccc(OC(=O)Nc2cc(C)ccc2C)cc1
inactive: [11] 97 % of control | [12] 109 % of control | dose: 200.0 mg/kg/injection, schedule: Q01DX009 (ip), vehicle: Klucel (hydroxypropylcellulose) (HPC) 107 % of control | [13] 107 % of control | [18] 107 % of control

CN1C(=O)C2CCCN2C(=O)C1(C)O (stereo not given)
inactive: [9] 90 % of control | [10] 97 % of control | dose: 400.0 mg/kg/injection, schedule: Q04DX002 (ip), vehicle: saline 97 % of control

Cc1cc(C)c(NC(=O)Nc2ccc(Cl)c(Cl)c2)cc1C
inactive: [1] 93 % of control | [2] 96 % of control | dose: 400.0 mg/kg/injection, schedule: Q04DX002 (ip), vehicle: Klucel (hydroxypropylcellulose) (HPC) 93 % of control

Nc1ncnc2nc(-c3ccc(Cl)cc3Cl)[nH]c12
inactive: dose: 6.25 mg/kg/injection, schedule: Q01DX001 (ip), vehicle: saline with Tween-80 101 % of control | dose: 12.5 mg/kg/injection, schedule: Q01DX001 (ip), vehicle: saline with Tween-80 106 % of control | dose: 25.0 mg/kg/injection, schedule: Q01DX001 (ip), vehicle: saline with Tween-80 98 % of control
